This note sets out measurements from the NIST ThermoML archive (doi:10.1021/je0602723).

A short description of this data set: activity coefficient (dimensionless); of the first substance listed, at infinite dilution; xn = mol fraction of the nth substance listed. The note with it: Liquid, Chromatography, x1 = 0.

± gives the expanded uncertainty stated by the source.

For the compound `C1COCCO1` [1,4-dioxane] + CCOS(=O)(=O)[O-].CCn1cc[n+](C)c1, the activity coefficient was 2.1 ± 0.14 (312.4 K), 2.08 ± 0.14 (333.4 K) and 2.06 ± 0.14 (354.2 K).
Turning to `O=C1CCCCCN1` [1-aza-2-cycloheptanone] + CCOS(=O)(=O)[O-].CCn1cc[n+](C)c1, the activity coefficient worked out at 5.1 ± 0.35 (412.3 K), 6.1 ± 0.42 (417.1 K) and 4.9 ± 0.33 (427.1 K).
For the compound `CC(C)CO` [2-methyl-1-propanol] + CCOS(=O)(=O)[O-].CCn1cc[n+](C)c1, the activity coefficient is, setting by setting: (322.7 K) 1.65 ± 0.11; (333.4 K) 1.51 ± 0.1; (343.9 K) 1.43 ± 0.09; (357.2 K) 1.24 ± 0.08; (386 K) 1.17 ± 0.07.
Regarding `CCC(C)(C)O` [2-methylbutan-2-ol] + CCOS(=O)(=O)[O-].CCn1cc[n+](C)c1, the activity coefficient (302 K) is 2.51 ± 0.17; the activity coefficient (312.4 K) was determined as 2.44 ± 0.17; the activity coefficient (333.4 K) was 2.21 ± 0.15; the activity coefficient (343.9 K) amounted to 2.14 ± 0.15; the activity coefficient (354.4 K) was 2.07 ± 0.14.
For the compound `CC(C)(C)O` [2-methylpropan-2-ol] + CCOS(=O)(=O)[O-].CCn1cc[n+](C)c1, the activity coefficient runs as follows: (302 K) 2.02 ± 0.14; (312.4 K) 1.86 ± 0.13; (322.9 K) 1.74 ± 0.12; (333.4 K) 1.64 ± 0.11; (343.9 K) 1.57 ± 0.1; (354.4 K) 1.49 ± 0.1.
For `CC(C)=O` [acetone] + CCOS(=O)(=O)[O-].CCn1cc[n+](C)c1, the activity coefficient (323.1 K) stood at 1.64 ± 0.11; the activity coefficient (333.6 K) was 1.63 ± 0.11; the activity coefficient (343.9 K) is 1.61 ± 0.11; the activity coefficient (365 K) was 1.56 ± 0.1; the activity coefficient (375.4 K) is 1.54 ± 0.1; the activity coefficient (386 K) came to 1.5 ± 0.1.
For the compound `CC#N` [acetonitrile] + CCOS(=O)(=O)[O-].CCn1cc[n+](C)c1, the activity coefficient runs as follows: (312.2 K) 0.81 ± 0.05; (333.4 K) 0.8 ± 0.05; (343.9 K) 0.78 ± 0.05; (354.3 K) 0.77 ± 0.05.
For `c1ccccc1` [benzene] + CCOS(=O)(=O)[O-].CCn1cc[n+](C)c1, the activity coefficient is, setting by setting: (301.8 K) 2.98 ± 0.2; (312.3 K) 2.94 ± 0.2; (323 K) 2.88 ± 0.2; (333.5 K) 2.79 ± 0.19; (343.9 K) 2.69 ± 0.18; (354.4 K) 2.59 ± 0.18. Further, the activity coefficient (364.7 K) is 2.5 ± 0.17.
Consider `CCCCO` [butan-1-ol] + CCOS(=O)(=O)[O-].CCn1cc[n+](C)c1, for which the activity coefficient was 1.68 ± 0.11 (323 K); 1.59 ± 0.11 (333.4 K); 1.5 ± 0.1 (343.8 K); 1.42 ± 0.09 (354.2 K); 1.29 ± 0.08 (365 K).
Consider `CCC(C)O` (configuration not stated) [butan-2-ol] + CCOS(=O)(=O)[O-].CCn1cc[n+](C)c1, for which the activity coefficient is, setting by setting: (312.5 K) 1.93 ± 0.13; (333.4 K) 1.65 ± 0.11; (344 K) 1.56 ± 0.1; (354.5 K) 1.45 ± 0.1; (364.9 K) 1.42 ± 0.09.
As for `CCCC=O` [butanal] + CCOS(=O)(=O)[O-].CCn1cc[n+](C)c1, the activity coefficient (322.8 K) worked out at 3.47 ± 0.24; the activity coefficient (333.4 K) is 3.39 ± 0.23; the activity coefficient (344 K) amounted to 3.35 ± 0.23; the activity coefficient (354.5 K) was determined as 3.29 ± 0.22; the activity coefficient (364.9 K) is 3.23 ± 0.22; the activity coefficient (375.3 K) was determined as 3.2 ± 0.22. The activity coefficient (385.9 K) is 3.14 ± 0.21.
With `CCCCc1ccccc1` [butylbenzene] + CCOS(=O)(=O)[O-].CCn1cc[n+](C)c1, the activity coefficient (343.7 K) is 28.4 ± 1.9; the activity coefficient (354.3 K) amounted to 26.3 ± 1.8; the activity coefficient (364.8 K) came out at 24.7 ± 1.7; the activity coefficient (375.1 K) stood at 23.2 ± 1.6; the activity coefficient (385.6 K) was 21.6 ± 1.5; the activity coefficient (396.1 K) came to 20.1 ± 1.4.
Consider `ON=C1CCCCC1` [cyclohexanone oxime] + CCOS(=O)(=O)[O-].CCn1cc[n+](C)c1, for which the activity coefficient runs as follows: (417.2 K) 0.57 ± 0.04; (427.5 K) 0.41 ± 0.03.
Regarding `CCCCCCCCCC` [decane] + CCOS(=O)(=O)[O-].CCn1cc[n+](C)c1, the activity coefficient (301.8 K) stood at 504 ± 35, the activity coefficient (312.4 K) turned out to be 445 ± 31, the activity coefficient (322.9 K) was 389 ± 27 and the activity coefficient (333.5 K) stood at 331 ± 23.
On to `CCO` [ethanol] + CCOS(=O)(=O)[O-].CCn1cc[n+](C)c1, for which the activity coefficient runs as follows: (302.4 K) 0.86 ± 0.06; (322.8 K) 0.79 ± 0.05; (333.5 K) 0.73 ± 0.05; (343.9 K) 0.69 ± 0.05; (354.3 K) 0.67 ± 0.05.
For the compound `CCc1ccccc1` [ethylbenzene] + CCOS(=O)(=O)[O-].CCn1cc[n+](C)c1, the activity coefficient was determined as 9.16 ± 0.62 (354.3 K), 8.71 ± 0.59 (364.7 K), 8.21 ± 0.56 (375.1 K) and 7.77 ± 0.53 (385.7 K).
Regarding `CCCCCCC=O` [heptanal] + CCOS(=O)(=O)[O-].CCn1cc[n+](C)c1, the activity coefficient by setting is: (303.3 K) 16.1 ± 1.1; (312.2 K) 15 ± 1; (322.8 K) 14 ± 0.96; (333.3 K) 13.1 ± 0.89; (354.2 K) 11.4 ± 0.78.
As for `CCCCCCO` [hexan-1-ol] + CCOS(=O)(=O)[O-].CCn1cc[n+](C)c1, the activity coefficient runs as follows: (343.8 K) 3.52 ± 0.24; (354.2 K) 3.27 ± 0.22; (364.9 K) 3.06 ± 0.21; (375.2 K) 2.81 ± 0.19.
Turning to `CCCCCC=O` [hexanal] + CCOS(=O)(=O)[O-].CCn1cc[n+](C)c1, the activity coefficient (312.2 K) is 11.4 ± 0.78, the activity coefficient (322.9 K) turned out to be 11.3 ± 0.77 and the activity coefficient (333.4 K) was 11.1 ± 0.76.
For the compound `CO` [methanol] + CCOS(=O)(=O)[O-].CCn1cc[n+](C)c1, the activity coefficient by setting is: (312.4 K) 0.41 ± 0.03; (323 K) 0.4 ± 0.03; (333.4 K) 0.39 ± 0.03; (343.8 K) 0.38 ± 0.03; (354.2 K) 0.36 ± 0.03.
On to `CCCC(=O)OC` [methyl butanoate] + CCOS(=O)(=O)[O-].CCn1cc[n+](C)c1, for which the activity coefficient is 7.29 ± 0.5 (344 K); 6.88 ± 0.47 (354.5 K); 6.58 ± 0.45 (364.9 K); 6.26 ± 0.43 (375.4 K); 5.9 ± 0.4 (385.9 K).
For the compound `CCCCCCC(=O)OC` [methyl heptanoate] + CCOS(=O)(=O)[O-].CCn1cc[n+](C)c1, the activity coefficient (301.8 K) came out at 29.8 ± 2, the activity coefficient (312.4 K) turned out to be 28.4 ± 1.9, the activity coefficient (322.9 K) was 27.1 ± 1.9 and the activity coefficient (333.4 K) was 25.5 ± 1.8.
Consider `CCCCCC(=O)OC` [methyl hexanoate] + CCOS(=O)(=O)[O-].CCn1cc[n+](C)c1, for which the activity coefficient runs as follows: (301.7 K) 20.1 ± 1.4; (312.4 K) 19.2 ± 1.3; (333.4 K) 17 ± 1.2; (343.9 K) 15.9 ± 1.1.
On to `CCCCC(=O)OC` [methyl pentanoate] + CCOS(=O)(=O)[O-].CCn1cc[n+](C)c1, for which the activity coefficient (333.6 K) is 11.6 ± 0.79; the activity coefficient (344.1 K) was determined as 10.9 ± 0.74; the activity coefficient (354.5 K) came out at 10.2 ± 0.69; the activity coefficient (364.9 K) was 9.42 ± 0.64; the activity coefficient (375.4 K) is 8.57 ± 0.58; the activity coefficient (385.9 K) turned out to be 7.75 ± 0.53.
With `CCC(=O)OC` [methyl propanoate] + CCOS(=O)(=O)[O-].CCn1cc[n+](C)c1, the activity coefficient (322.9 K) is 4.73 ± 0.32; the activity coefficient (333.5 K) was 4.58 ± 0.31; the activity coefficient (344 K) turned out to be 4.38 ± 0.3; the activity coefficient (354.5 K) is 4.1 ± 0.28; the activity coefficient (364.9 K) worked out at 3.86 ± 0.26; the activity coefficient (375.3 K) was 3.61 ± 0.25.
For `CCCCCCCCC` [nonane] + CCOS(=O)(=O)[O-].CCn1cc[n+](C)c1, the activity coefficient runs as follows: (301.8 K) 357 ± 25; (312.4 K) 304 ± 21; (322.9 K) 249 ± 17; (333.5 K) 200 ± 14.
Take `CCCCCCCC=O` [octanal] + CCOS(=O)(=O)[O-].CCn1cc[n+](C)c1: the activity coefficient runs as follows: (303.3 K) 29.8 ± 2; (312.2 K) 28.3 ± 1.9; (322.8 K) 27.1 ± 1.9; (333.3 K) 26.1 ± 1.8; (343.8 K) 25.5 ± 1.7.
`CCCCCCCC` [octane] + CCOS(=O)(=O)[O-].CCn1cc[n+](C)c1: the activity coefficient is 221 ± 15 (301.9 K), 184 ± 13 (312.5 K), 148 ± 10 (322.9 K) and 119 ± 8.2 (333.5 K).
